# Test results: patent US20190389843A1, “PYRROLE mTORC INHIBITORS AND USES THEREOF” (Navitor Pharmaceuticals, Inc., priority 2016, published 2019)
# pIC50: −log10 of the molar value. Where a name gives a salt, the structure may show the parent alone.
# Legend:
# [1] = tested on: pS6K1 in MCF7 (measure of mTORC1 activity); experiment: AlphaLISA Ultra pS6K1 assay; assay type: cell-based; details: Homo sapiens, MCF7, 2 h, MCF-7 cells, 2 hours compound incubation
# Procedure: (§1) Assay Protocol: • 1. […] 12,000˜16,000 cells will be seeded in 36 μL medium per well. • 2. Change the culture medium with fresh medium and incubate for another 2 hours. • 3. Add 12 μL (4λ) compounds into the cell plate by HAMILTON. Final DMSO concentration is 0.5%. Incubate for 2 hours. • 4. Aspirate 38 μL by HAMILTON, 10 μL rest per well. • 5. Add 10 μL 2× lysis buffer using HAMILTON; total volume in wells is 20 μL. Allow cells to shake for 30 min. Cover plate by plastic foil and store plate at −80° C. up to analysis. • 6. […] Add 5 ul acceptor beads into assay plate and incubation for 2 hours • 8. Add 5 ul donor beads and incubation for 2 hours • 9. Count the plate by EnSpire Multimode Plate Reader
# [2] = tested on: pAKT in MCF7 (measure of mTORC2 activity); experiment: AlphaLISA Ultra pAKT assay; assay type: cell-based; details: Homo sapiens, MCF7, 2 h, MCF-7 cells, 2 hours compound incubation
# Procedure: as §1, with “16,000˜20,000” for “12,000˜16,000”, “(4×)” for “(4λ)”
SMILES,pIC50 [1],pIC50 [2]
Cn1cc(CNC2CCN(c3ccccc3Cl)CC2)cc1C(=O)N1CCN(c2ccc(F)cc2)CC1 [Example I-129],5.52 to 6.00,< 5.00
Cn1c(C(=O)N2CCN(c3ccccc3)CC2)cc(CN2CCN(c3ccccc3C#N)CC2)c1C#N [Example I-39],6.00 to 8.00,< 5.00
"Cc1c(CN2CCN(c3ccccc3Cl)CC2)cc(C(=O)N2CCCN(c3ccc(F)cc3)CC2)n1C [Example I-49, (4-((4-(2-Chlorophenyl)piperazin-1-yl)methyl)-1,5-dimethyl-1H-pyrrol-2-yl)(4-(4-fluorophenyl)-1,4-diazepan-1-yl)methanone]",5.52 to 6.00,< 5.00
"Cc1c(CN2CCN(c3ccccc3Cl)CC2)cc(C(=O)N2CCN(c3cccc4cc[nH]c34)C[C@@H]2C)n1C [Example I-31, (S)-(4-(1H-indol-7-yl)-2-methylpiperazin-1-yl)(4-((4-(2-chlorophenyl)piperazin-1-yl)methyl)-1,5-dimethyl-1H-pyrrol-2-yl)methanone]",5.52 to 6.00,< 5.00
"Cc1c(CN2CCN(c3ccccc3Cl)CC2)cc(C(=O)N2CCN(c3ccccc3)CC2)n1C [Example I-133, (4-((4-(2-Chlorophenyl)piperazin-1-yl)methyl)-1,5-dimethyl-1H-pyrrol-2-yl)(4-phenylpiperazin-1-yl)methanone]",6.00 to 8.00,< 6.00
CC(=O)OCCn1cc(CN2CCN(c3ccccc3Cl)CC2)cc1C(=O)N1CCN(c2ccccc2)CC1 [Example I-148],5.52 to 6.00,< 5.00
"Cc1c(CN2CCN(c3ccccc3Cl)CC2)cc(C(=O)N2CCN(c3ccc(F)cc3)CC2)n1C [Example I-115, (4-((4-(2-Chlorophenyl)piperazin-1-yl)methyl)-1,5-dimethyl-1H-pyrrol-2-yl)(4-(4-fluorophenyl)piperazin-1-yl)methanone]",6.00 to 8.00,< 5.52
Cc1c(CN2CCN(c3ccccc3C#N)CC2)cc(C(=O)N2CCN(c3ccc4ncn(C)c4c3)CC2)n1C [Example I-48],5.00 to 5.52,< 5.00
"C[C@H]1CN(c2cc(F)ccc2C#N)CCN1C(=O)c1cc(CN2CCN(c3ccccc3Cl)CC2)cn1C [Example I-87, (S)-2-(4-(4-((4-(2-chlorophenyl)piperazin-1-yl)methyl)-1-methyl-1H-pyrrole-2-carbonyl)-3-methylpiperazin-1-yl)-4-fluorobenzonitrile]",6.00 to 8.00,< 5.30
"Cc1c(CN2CCN(c3ccccc3Cl)CC2)cc(C(=O)N2CCN(c3ccc(F)c(F)c3)CC2)n1C [Example I-109, (4-((4-(2-chlorophenyl)piperazin-1-yl)methyl)-1,5-dimethyl-1H-pyrrol-2-yl)(4-(3,4-difluorophenyl)piperazin-1-yl)methanone]",6.00 to 8.00,< 6.00
Cn1cc(CN2CCN(c3ccccc3C#N)CC2)cc1C(=O)N1CCN(c2ccc(F)cc2)CC1 [Example I-73],5.00 to 5.52,< 5.00
"Cc1c(CN2CCN(c3ncccc3Cl)CC2)cc(C(=O)N2CCN(c3cccc(C#N)c3)C[C@@H]2C)n1C [Example I-99, (S)-3-(4-(4-((4-(3-chloropyridin-2-yl)piperazin-1-yl)methyl)-1,5-dimethyl-1H-pyrrole-2-carbonyl)-3-methylpiperazin-1-yl)benzonitrile]",6.00 to 8.00,< 5.52
"C[C@H]1CN(c2cc(F)c(F)c(F)c2)CCN1C(=O)c1cc(CN2CCN(c3ccccc3Cl)CC2)cn1C [Example I-88, (S)-(4-((4-(2-chlorophenyl)piperazin-1-yl)methyl)-1-methyl-1H-pyrrol-2-yl)(2-methyl-4-(3,4,5-trifluorophenyl)piperazin-1-yl)methanone]",5.52 to 6.00,< 5.00
Cc1c(CN2CCN(c3ccccc3C#N)CC2)cc(C(=O)N2CCN(c3nnccc3C#N)CC2)n1C [Example I-15],5.52 to 6.00,< 5.00
"C[C@H]1CN(c2cccc(C#N)c2)CCN1C(=O)c1cc(CN2CCN(c3ccccc3Cl)CC2)cn1C [Example I-123, (S)-3-(4-(4-((4-(2-chlorophenyl)piperazin-1-yl)methyl)-1-methyl-1H-pyrrole-2-carbonyl)-3-methylpiperazin-1-yl)benzonitrile]",6.00 to 8.00,< 6.00
Cc1c(CN2CCN(c3ncccc3Cl)CC2)cc(C(=O)N2CCN(c3cc(F)c(F)cc3C#N)CC2)n1C [Example I-3],6.00 to 8.00,< 5.00
COCCCn1cc(CN2CCN(c3ccccc3Cl)CC2)cc1C(=O)N1CCN(c2ccccc2)CC1 [Example I-145],5.00 to 5.52,< 5.00

SMILES,pIC50 [1],pIC50 [2]
"C[C@H]1CN(c2ccc(F)c(F)c2)CCN1C(=O)c1cc(CN2CCN(c3ccccc3Cl)CC2)cn1C [Example I-117, (S)-(4-((4-(2-chlorophenyl)piperazin-1-yl)methyl)-1-methyl-1H-pyrrol-2-yl)(4-(3,4-difluorophenyl)-2-methylpiperazin-1-yl)methanone]",6.00 to 8.00,< 5.52
Cc1c(CN2CCN(c3ccccc3C#N)CC2)cc(C(=O)N2CCN(c3ccccc3)CC2)n1C [Example I-54],6.00 to 8.00,< 6.00
"Cn1cc(CN2CCN(c3ncccc3Cl)CC2)cc1C(=O)N1CCN(c2ccccc2)CC1 [Example I-119, (4-((4-(3-chloropyridin-2-yl)piperazin-1-yl)methyl)-1-methyl-1H-pyrrol-2-yl)(4-phenylpiperazin-1-yl)methanone]",5.52 to 6.00,< 5.52
"Cc1c(CN2CCN(c3ncccc3Cl)CC2)cc(C(=O)N2CCN(c3cccc(Cl)c3)CC2)n1C [Example I-98, 1-({5-[4-(3-Chlorophenyl)piperazine-1-carbonyl]-1,2-dimethyl-1H-pyrrol-3-yl}methyl)-4-(3-chloropyridin-2-yl)piperazine]",6.00 to 8.00,< 5.52
C[C@H]1CN(c2ccccc2C#N)CCN1C(=O)c1cc(CN2CCN(c3ccccc3C#N)CC2)cn1C [Example I-58],6.00 to 8.00,< 5.00
"Cc1c(CN2CCN(c3ncccc3Cl)CC2)cc(C(=O)N2CCN(c3ccc(F)c(F)c3)CC2)n1C [Example I-84, (4-((4-(3-chloropyridin-2-yl)piperazin-1-yl)methyl)-1,5-dimethyl-1H-pyrrol-2-yl)(4-(3,4-difluorophenyl)piperazin-1-yl)methanone]",6.00 to 8.00,< 5.52
"Cc1c(CN2CCN(c3ncccc3Cl)CC2)cc(C(=O)N2CCN(c3ccc(F)c(F)c3)C[C@@H]2C)n1C [Example I-78, (S)-(4-((4-(3-chloropyridin-2-yl)piperazin-1-yl)methyl)-1,5-dimethyl-1H-pyrrol-2-yl)(4-(3,4-difluorophenyl)-2-methylpiperazin-1-yl)methanone]",6.00 to 8.00,< 5.52
"Cc1ccccc1N1CCN(Cc2cc(C(=O)N3CCN(c4ccccc4)CC3)n(C)c2)CC1 [Example I-134, (1-methyl-4-((4-o-tolylpiperazin-1-yl)methyl)-1H-pyrrol-2-yl)(4-phenylpiperazin-1-yl)methanone]",5.52 to 6.00,< 5.52
"O=C(c1cc(CN2CCN(c3ccccc3Cl)CC2)cn1CC(F)(F)F)N1CCN(c2ccccc2)CC1 [Example I-114, (4-((4-(2-Chlorophenyl)piperazin-1-yl)methyl)-1-(2,2,2-trifluoroethyl)-1H-pyrrol-2-yl)(4-phenylpiperazin-1-yl)methanone trifluoroacetate salt]",5.52 to 6.00,< 5.00
Cn1cc(CN2CC3CN(c4ccccc4Cl)CC3C2)cc1C(=O)N1CCN(c2ccc(F)cc2)CC1 (stereo not drawn) [Example I-131],5.00 to 5.52,< 5.00
COCCn1cc(CN2CCN(c3ccccc3C#N)CC2)cc1C(=O)N1CCN(c2ccccc2OC)CC1 [Example I-150],5.00 to 5.52,< 5.00
"Cn1cc(CN2CCN(c3ccccc3Cl)CC2)cc1C(=O)N1CCN(c2cccc(C#N)c2)CC1 [Example I-138, 3-(4-(4-((4-(2-chlorophenyl)piperazin-1-yl)methyl)-1-methyl-1H-pyrrole-2-carbonyl)piperazin-1-yl)benzonitrile]",5.52 to 6.00,< 5.52
COc1cccc(N2CCN(C(=O)c3cc(CN4CCN(c5ccccc5C#N)CC4)c(C)n3C)CC2)n1 [Example I-69],6.00 to 8.00,< 5.52
Cc1c(CN2CCN(c3ccccc3Cl)CC2)cc(C(=O)N2CCN(c3ccccc3C#N)C[C@@H]2C)n1C [Example I-100],6.00 to 8.00,< 5.00
"Cc1c(CN2CCN(c3ccccc3Cl)CC2)cc(C(=O)N2CCN(c3cccc(F)c3)CC2)n1C [Example I-108, (4-((4-(2-Chlorophenyl)piperazin-1-yl)methyl)-1,5-dimethyl-1H-pyrrol-2-yl)(4-(3-fluorophenyl)piperazin-1-yl)methanone]",6.00 to 8.00,< 6.00
"Cc1c(CN2CCN(c3ccccc3Cl)CC2)cc(C(=O)N2CCN(c3cccc(F)c3C#N)CC2)n1C [Example I-107, 2-(4-(4-((4-(2-chlorophenyl)piperazin-1-yl)methyl)-1,5-dimethyl-1H-pyrrole-2-carbonyl)piperazin-1-yl)-6-fluorobenzonitrile]",6.00 to 8.00,< 5.52
